The text below walks through data of US9458128B2, “Catechol O-methyltransferase activity inhibiting compounds” (Orion Corporation, priority 2012, dated 2016).

For experiment [1], the target named is T1, recombinant human soluble COMT (S-COMT) (Homo sapiens, UniProt P21964).
T1 sequence (P21964 1-221 isoform P21964-2): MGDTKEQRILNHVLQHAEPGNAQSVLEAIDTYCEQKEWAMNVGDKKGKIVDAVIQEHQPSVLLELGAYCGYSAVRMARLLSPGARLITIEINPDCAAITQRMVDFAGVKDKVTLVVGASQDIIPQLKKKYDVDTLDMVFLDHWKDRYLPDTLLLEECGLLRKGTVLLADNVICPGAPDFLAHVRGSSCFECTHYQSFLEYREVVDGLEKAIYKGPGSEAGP
Put plainly: COMT inhibiting activity in vitro, Assay 2 (HPLC with fluorescence detection). Type of experiment: biochemical. Particulars: Assay 2: 0.8 nM S-COMT, esculetin 0.5 μM, Morrison equation. Here is the method:
(§1) The inhibitory potency was determined by measuring recombinant human soluble COMT (S-COMT) activity at various compound concentrations. COMT activity measurements were performed according to the method published in Kurkela, M. et al. Analytical Biochemistry, 331 (2004) 198 with slight modifications according to Assay 1 or Assay 2 described below.
Recombinant human S-COMT (0.8 nM) was incubated with the COMT inhibitor and 200 μM S-adenosyl-L-methionine in 100 mM Na2HPO4 buffer, pH 7.4, containing 5 mM MgCl2 for 30 min at 37° C. The reaction was started with the addition of esculetin for a final concentration of 0.5 μM and the reaction mixture with total volume of 200 μl was incubated for 30 min at 37° C. The reaction was stopped with 20 μl of 4 M HClO4 and the precipitated protein was removed by Sirocco protein precipitation plate (centrifuged at 4° C. for 10 min at 3000 g). O-Methylated esculetin was detected by Waters HT Alliance HPLC setup with Waters 474 fluorescence detector (Ex […], Em 460 nm, Gain 100). The analytes were separated isocratically using 0.1 M Na2HPO4, 20 mM citric acid, 0.15 mM EDTA, pH 3.2, in 40% methanol as mobile phase and Waters Spherisorb ODS2 (3 μm, 4.6 mm×100 mm) column. O-Methylated esculetin concentrations were calculated based on the standard curve and the Ki values were calculated using the Morrison equation as in Assay 1.

Experiment [2] in a line: Determination of levodopa concentration in rat plasma. Type of experiment: in vivo. Conditions: entacapone = 1.00, adult male Wistar rats, COMT inhibitor dosed orally with levodopa+carbidopa. The protocol:
Levodopa concentration in rat plasma was determined substantially as described in e.g. Kim, T. K. et al. European Journal of Pharmaceutical Sciences, 38 (2009) 525. The studies were performed in adult male Wistar rats. The COMT inhibitor was dosed orally over a range of doses and several sampling time points were chosen between 0 min and 300 min after drug administration (levodopa+carbidopa and COMT inhibitor). Blood samples were collected by cardiac puncture under CO2 anaesthesia into pre-cooled K2EDTA tubes and kept on ice until the separation of plasma by centrifugation. For levodopa analysis, 75 μl of separated plasma was pipetted without delay into pre-cooled polypropylene tubes containing a conserving agent. All the samples were stored at −80° C. nominal until analyzed. Plasma levels of levodopa were determined by LC-MS/MS (or HPLC). Standard pharmacokinetic methods were used to evaluate the concentration—time data by non-compartmental analysis modeling. The analyses were performed using WinNonlin® Professional v. 5.0.1.

The target of experiment [3] is T1, recombinant human soluble COMT (S-COMT). Put plainly: COMT inhibiting activity in vitro, Assay 1 (fluorescence plate reader). The experiment is classed as biochemical. Conditions: Assay 1: 12 nM S-COMT, 60 min preincubation at 37° C., substrate esculetin, Morrison equation. Here is the method:
as §1
Recombinant human S-COMT (12 nM) was preincubated with the COMT inhibitor and 400 μM S-adenosyl-L-methionine in 100 mM Na2HPO4 buffer, pH 7.4, containing 5 mM MgCl2 for 60 min at 37° C. The reaction was started with the addition of the substrate esculetin for a final concentration of […] and the production of O-methylated esculetin was followed with the FlexStation fluorescence plate reader ([…], USA) using excitation at 355 nm and emission at 460 nm. The inhibitor dissociation constant, Ki, of the studied compounds was calculated using the Morrison equation, which takes the tight binding inhibition into account (Copeland, R. A. Evaluation of Enzyme Inhibitors in Drug Discovery. A Guide for Medicinal Chemists and Pharmacologists, John Wiley & Sons, Inc., Hoboken, N.J., 2005, pp. 185-187):
[formula] wherein v0 and vi are the reaction velocities in the absence and presence, respectively, of the inhibitor, E is the active enzyme concentration, and I is the inhibitor concentration. The data were analyzed with GraphPad Prism version 4.00 software (GraphPad Software, San Diego, Calif., USA). Assay 2

Consider `CCc1ccc(Sc2c(C#N)cc(O)c(O)c2C#N)cc1` [Example 158, 2-(4-Ethylphenylthio)-4,5-dihydroxyisophthalonitrile], for which the inhibition constant Ki in experiment [1] amounted to 0.53 nM.

Take `N#Cc1cc(O)c(O)c(C#N)c1Sc1ccc(CC(=O)O)cc1` [Example 164, 2-(4-(2,6-Dicyano-3,4-dihydroxyphenylthio)phenyl)acetic acid]: in experiment [1], the Ki was determined as 0.2 nM.

Regarding `Cc1ccccc1Sc1c(C#N)cc(O)c(O)c1C#N` [Example 160, 4,5-Dihydroxy-2-(o-tolylthio)isophthalonitrile], in experiment [1], the Ki was determined as 0.7 nM.

Regarding `N#Cc1cc(O)c(O)c(C#N)c1Cc1ccccc1F` [Example 60, 2-(2-Fluorobenzyl)-4,5-dihydroxyisophthalonitrile], in experiment [2], the Relative levodopa concentration worked out at 1.13.

For the compound `Cc1ccc(Oc2c(C#N)cc(O)c(O)c2C#N)c(C)c1` [Example 180, 2-(2,4-Dimethylphenoxy)-4,5-dihydroxyisophthalonitrile], the Ki in experiment [1] worked out at 0.5 nM.

With `N#Cc1cc(O)c(O)c(C#N)c1C1=CCOCC1` [Example 74, 2-(3,6-Dihydro-2H-pyran-4-yl)-4,5-dihydroxyisophthalonitrile], in experiment [3], the Ki worked out at 2 nM.

As for `COC(=O)CCc1ccc(Sc2c(C#N)cc(O)c(O)c2C#N)cc1` [Example 144, Methyl 3-(4-(2,6-dicyano-3,4-dihydroxyphenylthio)phenyl)propanoate], the Ki in experiment [1] came to 0.7 nM.

For `N#Cc1cc(O)c(O)c(C#N)c1Cc1ccccc1` [Example 45, 2-Benzyl-4,5-dihydroxyisophthalonitrile], in experiment [3], the Ki turned out to be 8.2 nM.

On to `Cc1ccc(-c2c(C#N)cc(O)c(O)c2C#N)cc1` [Example 152, 3,4-Dihydroxy-4′-methylbiphenyl-2,6-dicarbonitrile], for which the Ki in experiment [1] came to 1.6 nM.

Regarding `N#Cc1cc(O)c(O)c(C#N)c1-c1ccc(CCC(=O)O)cc1` [Example 32, 3-(2′,6′-Dicyano-3′,4′-dihydroxybiphenyl-4-yl)propanoic acid], the Ki in experiment [3] turned out to be 2 nM.

Take `Cc1ccc(/C=C/c2c(C#N)cc(O)c(O)c2C#N)cc1` [Example 121, (E)-4,5-Dihydroxy-2-(4-methylstyryl)isophthalonitrile]: the Ki in experiment [3] was 18 nM.

Take `N#Cc1cc(O)c(O)c(C#N)c1Cc1ccc(C(=O)O)cc1` [Example 118, 4-(2,6-Dicyano-3,4-dihydroxybenzyl)benzoic acid]: in experiment [1], the Ki was determined as 0.33 nM.

For the compound `CC(C)=Cc1c(C#N)cc(O)c(O)c1C#N` [Example 87, 4,5-Dihydroxy-2-(2-methylprop-1-enyl)isophthalonitrile], the Relative levodopa concentration in experiment [2] was determined as 1.51.

In experiment [2], `N#Cc1cc(O)c(O)c(C#N)c1Br` [Example 1, 2-Bromo-4,5-dihydroxyisophthalonitrile] had a Relative levodopa concentration of 1.65.

In experiment [2], `C=CCc1c(C#N)cc(O)c(O)c1C#N` [Example 92, 2-Allyl-4,5-dihydroxyisophthalonitrile] yielded a Relative levodopa concentration of 1.42.

With `C=Cc1c(C#N)cc(O)c(O)c1C#N` [Example 89, 4,5-Dihydroxy-2-vinylisophthalonitrile], the Ki in experiment [3] came out at 2 nM.

For the compound `COc1ccc(Sc2c(C#N)cc(O)c(O)c2C#N)cc1` [Example 167, 4,5-Dihydroxy-2-(4-methoxyphenylthio)isophthalonitrile], in experiment [1], the Ki came to 0.3 nM.

For `Cc1ccc([S+]([O-])c2c(C#N)cc(O)c(O)c2C#N)cc1` (stereo not shown) [Example 156, 4,5-Dihydroxy-2-(p-tolylsulfinyl)isophthalonitrile], in experiment [1], the Ki was found to be 0.26 nM.

For `CC(C)(C)/C=C/c1c(C#N)cc(O)c(O)c1C#N` [Example 28, (E)-2-(3,3-Dimethylbut-1-enyl)-4,5-dihydroxyisophthalonitrile], the Relative levodopa concentration in experiment [2] was determined as 2.69.

As to `Cc1ccc(S(=O)(=O)c2c(C#N)cc(O)c(O)c2C#N)cc1` [Example 209, 4,5-Dihydroxy-2-tosylisophthalonitrile], the Ki in experiment [1] was 0.1 nM.

`N#Cc1cc(O)c(O)c(C#N)c1-c1ccco1` [Example 6, 2-(Furan-2-yl)-4,5-dihydroxyisophthalonitrile] returned a Relative levodopa concentration in experiment [2] of 1.64.

For the compound `N#Cc1cc(O)c(O)c(C#N)c1Sc1cccc(C(=O)O)c1` [Example 172, 3-(2,6-Dicyano-3,4-dihydroxyphenylthio)benzoic acid], the Ki in experiment [1] amounted to 0.2 nM.

For the compound `N#Cc1cc(O)c(O)c(C#N)c1CCCO` [Example 187, 4,5-Dihydroxy-2-(3-hydroxypropyl)isophthalonitrile], the Ki in experiment [3] was determined as 3.2 nM.

As to `N#Cc1cc(O)c(O)c(C#N)c1Sc1ccc2ccccc2c1` [Example 174, 4,5-Dihydroxy-2-(naphthalen-2-ylthio)isophthalonitrile], in experiment [1], the Ki is 0.5 nM.

Take `N#Cc1cc(O)c(O)c(C#N)c1N1CCOCC1` [Example 191, 4,5-Dihydroxy-2-morpholinoisophthalonitrile]: the Ki in experiment [3] was found to be 2.9 nM.

Regarding `CCN(CC)C(=O)c1cccc(-c2c(C#N)cc(O)c(O)c2C#N)c1` [Example 100, 2′,6′-Dicyano-N,N-diethyl-3′,4′-dihydroxybiphenyl-3-carboxamide], the Ki in experiment [3] was 6.5 nM.

As to `N#Cc1cc(O)c(O)c(C#N)c1Sc1ccc(Cl)cc1` [Example 159, 2-(4-Chlorophenylthio)-4,5-dihydroxyisophthalonitrile], the Ki in experiment [1] came out at 0.94 nM.

As to `CC(=O)c1ccc(Oc2c(C#N)cc(O)c(O)c2C#N)cc1` [Example 177, 2-(4-Acetylphenoxy)-4,5-dihydroxyisophthalonitrile], the Ki in experiment [1] is 0.8 nM.

For the compound `N#Cc1cc(O)c(O)c(C#N)c1/C=C/C(=O)O` [Example 76, (E)-3-(2,6-Dicyano-3,4-dihydroxyphenyl)acrylic acid], the Ki in experiment [3] came to 3.3 nM.

In the case of `N#Cc1cc(O)c(O)c(C#N)c1-c1cccs1` [Example 5, 4,5-Dihydroxy-2-(thiophen-2-yl)isophthalonitrile], the Ki in experiment [3] came out at 0.84 nM.

Turning to `N#Cc1cc(O)c(O)c(C#N)c1Cc1ccc(CCC(=O)O)cc1` [Example 153, 3-(4-(2,6-Dicyano-3,4-dihydroxybenzyl)phenyl)propanoic acid], the Ki in experiment [1] was determined as 0.4 nM.

Consider `N#Cc1cc(O)c(O)c(C#N)c1-c1cccc(C(=O)O)c1` [Example 26, 2′,6′-Dicyano-3′,4′-dihydroxybiphenyl-3-carboxylic acid], for which, in experiment [3], the Ki worked out at 0.12 nM.

As for `N#Cc1cc(O)c(O)c(C#N)c1-c1ccc2cc(O)ccc2c1` [Example 122, 4,5-Dihydroxy-2-(6-hydroxynaphthalen-2-yl)isophthalonitrile], in experiment [3], the Ki amounted to 1.5 nM.

Turning to `N#Cc1cc(O)c(O)c(C#N)c1Cc1ccc(C(F)(F)F)cc1` [Example 154, 4,5-Dihydroxy-2-(4-(trifluoromethyl)benzyl)isophthalonitrile], the Ki in experiment [1] amounted to 1.3 nM.

For `N#Cc1cc(O)c(O)c(C#N)c1Sc1ccncc1` [Example 171, 4,5-Dihydroxy-2-(pyridin-4-ylthio)isophthalonitrile], the Ki in experiment [1] came out at 0.9 nM.

On to `N#Cc1cc(O)c(O)c(C#N)c1-c1ccc(Cl)c(Cl)c1` [Example 38, 3′,4′-Dichloro-3,4-dihydroxybiphenyl-2,6-dicarbonitrile], for which the Ki in experiment [3] was 9.5 nM.

With `COC(=O)c1ccc(Sc2c(C#N)cc(O)c(O)c2C#N)cc1` [Example 161, Methyl 4-(2,6-dicyano-3,4-dihydroxyphenylthio)benzoate], the Ki in experiment [1] came to 0.3 nM.
